In the NIST ThermoML archive (doi:10.1021/je034243t):
± gives the expanded uncertainty stated by the source.

Assay: xn = mol fraction of the nth substance listed
Details: 291.15 K, Liquid, Vibrating tube method

In the case of `O=C=O` [carbon dioxide] + CCO, the mass density (x1 = 0.184) is reported as 819.5 ± 0.4 kg/m3, the mass density (x1 = 0.227) is reported as 826.4 ± 0.4 kg/m3 and the mass density (x1 = 0.304) is reported as 836.8 ± 0.4 kg/m3. For the same compound, the mass density (x1 = 0.455) was 855.1 ± 0.3 kg/m3, the mass density (x1 = 0.728) was 865.9 ± 0.3 kg/m3 and the mass density (x1 = 0.838) was 856.5 ± 0.5 kg/m3. The mass density (x1 = 0.951) was 828 ± 0.7 kg/m3, the mass density (x1 = 0.983) was 811.3 ± 1.2 kg/m3 and the mass density (x1 = 0.996) was 800.6 ± 1.7 kg/m3.
